Data from paper PMC12586182 (Frontiers in Oncology, 2025).

Experiments:
AXL = molecular target: T1, AXL (Homo sapiens, UniProt P30530); test: Kinase panel profiling at 1 µmol/L (mobility shift assay, Carna); type: biochemical; conditions: 1 µmol/L of BTK inhibitor
T1 construct: purchased Carna Biosciences
T1 sequence (P30530 26-894): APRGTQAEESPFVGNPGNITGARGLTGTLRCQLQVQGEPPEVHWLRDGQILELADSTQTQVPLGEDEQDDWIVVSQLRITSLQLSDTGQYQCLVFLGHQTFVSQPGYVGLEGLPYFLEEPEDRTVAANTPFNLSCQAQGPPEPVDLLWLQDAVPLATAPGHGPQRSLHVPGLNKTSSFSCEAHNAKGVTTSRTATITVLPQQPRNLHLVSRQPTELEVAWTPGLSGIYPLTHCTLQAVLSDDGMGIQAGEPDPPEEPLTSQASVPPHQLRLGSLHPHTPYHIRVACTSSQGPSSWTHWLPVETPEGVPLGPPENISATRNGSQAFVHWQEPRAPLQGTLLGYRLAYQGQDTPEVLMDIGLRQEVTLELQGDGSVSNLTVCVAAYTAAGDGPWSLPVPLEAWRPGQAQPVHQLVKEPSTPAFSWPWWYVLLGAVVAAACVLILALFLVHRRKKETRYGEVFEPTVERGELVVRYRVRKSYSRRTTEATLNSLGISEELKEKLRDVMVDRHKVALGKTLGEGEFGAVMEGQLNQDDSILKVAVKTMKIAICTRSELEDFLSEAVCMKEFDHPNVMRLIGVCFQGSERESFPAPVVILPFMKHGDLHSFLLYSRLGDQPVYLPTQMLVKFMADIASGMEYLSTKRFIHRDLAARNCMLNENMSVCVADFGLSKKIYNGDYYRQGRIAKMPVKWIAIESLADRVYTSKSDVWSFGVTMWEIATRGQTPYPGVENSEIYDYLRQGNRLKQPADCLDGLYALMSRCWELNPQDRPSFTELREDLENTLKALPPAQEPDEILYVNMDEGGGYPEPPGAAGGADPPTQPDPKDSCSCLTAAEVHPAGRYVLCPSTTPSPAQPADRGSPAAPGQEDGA

MET = molecular target: T2, MET (Homo sapiens, UniProt P08581); test: as above; type: biochemical; conditions: 1 µmol/L of BTK inhibitor
T2 construct: purchased Carna Biosciences

AurA/TPX2 = molecular target: T3, AurA/TPX2 (Homo sapiens, UniProt O14965); test: as above; type: biochemical; conditions: 1 µmol/L of BTK inhibitor
T3 construct: purchased Carna Biosciences
T3 sequence (O14965 1-403): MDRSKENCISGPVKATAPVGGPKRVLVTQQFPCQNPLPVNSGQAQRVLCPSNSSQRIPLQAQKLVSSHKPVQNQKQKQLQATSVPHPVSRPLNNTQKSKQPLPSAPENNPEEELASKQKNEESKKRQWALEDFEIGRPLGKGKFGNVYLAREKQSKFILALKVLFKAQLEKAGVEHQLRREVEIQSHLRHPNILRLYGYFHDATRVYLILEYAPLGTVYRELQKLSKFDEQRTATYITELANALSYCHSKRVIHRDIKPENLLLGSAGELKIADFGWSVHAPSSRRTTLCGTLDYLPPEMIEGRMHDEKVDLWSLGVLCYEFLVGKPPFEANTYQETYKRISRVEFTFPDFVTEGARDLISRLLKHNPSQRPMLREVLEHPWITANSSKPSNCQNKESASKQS
T3 sequence (Q9ULW0 1-43 partner limits assumed): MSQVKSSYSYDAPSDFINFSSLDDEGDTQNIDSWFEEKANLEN

CDK7/CycH/MAT1 = molecular target: T4, CDK7/CycH/MAT1 (Homo sapiens, UniProt P50613); test: as above; type: biochemical; conditions: 1 µmol/L of BTK inhibitor
T4 construct: purchased Carna Biosciences

PGK = molecular target: T5, PGK (Homo sapiens, UniProt Q13976); test: as above; type: biochemical; conditions: 1 µmol/L of BTK inhibitor
T5 construct: purchased Carna Biosciences
T5 sequence (Q13976 1-671): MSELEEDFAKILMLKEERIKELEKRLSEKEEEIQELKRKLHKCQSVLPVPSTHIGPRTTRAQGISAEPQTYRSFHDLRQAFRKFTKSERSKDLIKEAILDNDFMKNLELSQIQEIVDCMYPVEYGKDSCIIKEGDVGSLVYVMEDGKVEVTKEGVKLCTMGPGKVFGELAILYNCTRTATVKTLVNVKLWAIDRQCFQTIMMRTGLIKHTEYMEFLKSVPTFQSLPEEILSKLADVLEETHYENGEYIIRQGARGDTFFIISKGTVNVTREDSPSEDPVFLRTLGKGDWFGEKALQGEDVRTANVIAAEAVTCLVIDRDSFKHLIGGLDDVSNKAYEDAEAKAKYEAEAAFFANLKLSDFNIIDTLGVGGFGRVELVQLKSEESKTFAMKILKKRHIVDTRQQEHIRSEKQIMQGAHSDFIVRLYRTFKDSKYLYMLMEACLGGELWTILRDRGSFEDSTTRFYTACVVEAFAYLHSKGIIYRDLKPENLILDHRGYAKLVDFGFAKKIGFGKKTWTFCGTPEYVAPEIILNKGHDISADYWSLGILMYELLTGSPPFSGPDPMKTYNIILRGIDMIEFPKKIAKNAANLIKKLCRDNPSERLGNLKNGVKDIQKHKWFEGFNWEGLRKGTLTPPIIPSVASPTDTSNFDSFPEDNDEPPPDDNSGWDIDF

PHKG2 = molecular target: T6, PHKG2 (Homo sapiens, UniProt P15735); test: as above; type: biochemical; conditions: 1 µmol/L of BTK inhibitor
T6 construct: purchased Carna Biosciences
T6 sequence (P15735 1-406): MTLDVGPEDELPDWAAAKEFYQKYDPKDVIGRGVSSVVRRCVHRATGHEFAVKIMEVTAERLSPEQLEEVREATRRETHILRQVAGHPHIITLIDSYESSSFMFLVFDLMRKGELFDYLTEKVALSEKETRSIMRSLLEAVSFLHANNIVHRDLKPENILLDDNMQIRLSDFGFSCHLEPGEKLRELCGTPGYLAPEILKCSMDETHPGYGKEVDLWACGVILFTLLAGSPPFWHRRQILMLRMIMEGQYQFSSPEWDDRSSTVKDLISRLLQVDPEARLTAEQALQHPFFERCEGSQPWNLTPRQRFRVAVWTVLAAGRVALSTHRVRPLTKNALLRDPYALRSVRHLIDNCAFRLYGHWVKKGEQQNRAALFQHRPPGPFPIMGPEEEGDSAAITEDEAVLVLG

QIK = molecular target: T7, QIK (Homo sapiens, UniProt Q9H0K1); test: as above; type: biochemical; conditions: 1 µmol/L of BTK inhibitor
T7 construct: purchased Carna Biosciences

FGFR4 = FGFR4 (Homo sapiens, UniProt P22455); test: Kinase enzyme activity assay (mobility shift assay, Carna); conditions: for Percentage inhibition of kinase enzyme activity: FGFR4, 1 µmol/L of BTK inhibitor
Chain of FGFR4 (P22455 22-802): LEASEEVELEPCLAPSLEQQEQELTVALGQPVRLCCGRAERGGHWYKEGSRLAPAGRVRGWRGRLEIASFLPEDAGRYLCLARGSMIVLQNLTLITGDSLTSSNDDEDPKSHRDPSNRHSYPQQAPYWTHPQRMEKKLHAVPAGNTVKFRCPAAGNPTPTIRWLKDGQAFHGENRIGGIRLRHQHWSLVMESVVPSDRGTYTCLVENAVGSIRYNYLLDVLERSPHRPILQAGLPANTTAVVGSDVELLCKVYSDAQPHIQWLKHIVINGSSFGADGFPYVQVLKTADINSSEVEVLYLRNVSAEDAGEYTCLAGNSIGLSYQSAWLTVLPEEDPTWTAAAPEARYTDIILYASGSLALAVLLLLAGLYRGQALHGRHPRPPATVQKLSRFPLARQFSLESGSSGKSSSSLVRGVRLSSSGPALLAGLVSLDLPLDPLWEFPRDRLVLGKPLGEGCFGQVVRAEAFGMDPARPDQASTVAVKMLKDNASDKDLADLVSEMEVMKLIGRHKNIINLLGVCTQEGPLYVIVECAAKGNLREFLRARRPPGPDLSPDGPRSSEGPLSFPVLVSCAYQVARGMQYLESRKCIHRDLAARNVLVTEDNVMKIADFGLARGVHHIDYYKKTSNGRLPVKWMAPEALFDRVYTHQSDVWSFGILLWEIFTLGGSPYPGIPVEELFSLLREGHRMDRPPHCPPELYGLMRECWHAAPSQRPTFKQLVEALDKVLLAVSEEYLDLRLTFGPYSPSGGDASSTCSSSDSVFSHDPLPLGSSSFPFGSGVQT

T7 sequence (Q9H0K1 whole entry): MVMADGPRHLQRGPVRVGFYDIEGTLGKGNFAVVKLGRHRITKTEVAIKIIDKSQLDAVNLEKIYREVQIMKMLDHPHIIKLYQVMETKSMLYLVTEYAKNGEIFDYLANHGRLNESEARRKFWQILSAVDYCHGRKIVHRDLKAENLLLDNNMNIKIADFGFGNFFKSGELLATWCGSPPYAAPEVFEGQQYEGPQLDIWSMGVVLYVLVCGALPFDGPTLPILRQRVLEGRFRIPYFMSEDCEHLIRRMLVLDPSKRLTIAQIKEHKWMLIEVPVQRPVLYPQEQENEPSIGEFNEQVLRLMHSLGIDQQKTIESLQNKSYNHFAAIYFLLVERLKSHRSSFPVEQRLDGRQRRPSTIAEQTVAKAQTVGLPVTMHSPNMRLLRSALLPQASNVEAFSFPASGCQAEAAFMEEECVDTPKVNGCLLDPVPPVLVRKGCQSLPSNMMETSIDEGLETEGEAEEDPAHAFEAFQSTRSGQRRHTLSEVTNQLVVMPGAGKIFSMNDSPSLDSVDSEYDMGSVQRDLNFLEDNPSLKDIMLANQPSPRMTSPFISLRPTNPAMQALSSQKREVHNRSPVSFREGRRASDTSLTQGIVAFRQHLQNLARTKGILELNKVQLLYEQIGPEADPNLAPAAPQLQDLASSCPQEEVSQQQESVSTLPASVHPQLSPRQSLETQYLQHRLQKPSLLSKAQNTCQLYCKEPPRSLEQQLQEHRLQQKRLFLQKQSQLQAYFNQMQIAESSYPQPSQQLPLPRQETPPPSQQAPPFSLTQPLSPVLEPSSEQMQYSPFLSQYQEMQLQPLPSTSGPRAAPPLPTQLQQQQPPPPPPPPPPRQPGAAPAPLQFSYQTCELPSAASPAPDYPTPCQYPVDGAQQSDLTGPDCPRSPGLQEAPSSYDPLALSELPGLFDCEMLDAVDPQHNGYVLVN
T4 sequence (P50613 whole entry): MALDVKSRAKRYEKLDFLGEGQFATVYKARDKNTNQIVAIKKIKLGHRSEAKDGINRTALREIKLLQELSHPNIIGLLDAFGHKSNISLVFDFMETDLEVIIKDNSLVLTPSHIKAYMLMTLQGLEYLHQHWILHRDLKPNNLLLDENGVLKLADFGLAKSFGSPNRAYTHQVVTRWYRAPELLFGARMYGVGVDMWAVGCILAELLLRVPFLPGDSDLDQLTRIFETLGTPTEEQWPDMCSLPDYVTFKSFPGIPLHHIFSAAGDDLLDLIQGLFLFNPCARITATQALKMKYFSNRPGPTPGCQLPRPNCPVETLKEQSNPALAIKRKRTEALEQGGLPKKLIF
T4 sequence (P51946 whole entry partner): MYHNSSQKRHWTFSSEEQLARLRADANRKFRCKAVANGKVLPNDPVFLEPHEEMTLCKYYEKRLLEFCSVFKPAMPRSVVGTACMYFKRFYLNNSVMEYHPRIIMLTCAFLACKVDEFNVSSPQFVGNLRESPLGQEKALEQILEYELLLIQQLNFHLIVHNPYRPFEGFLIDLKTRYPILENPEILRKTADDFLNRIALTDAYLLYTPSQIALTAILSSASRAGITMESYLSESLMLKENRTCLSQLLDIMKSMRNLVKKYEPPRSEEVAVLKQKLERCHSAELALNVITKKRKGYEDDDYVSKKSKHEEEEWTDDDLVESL
T4 sequence (P51948 whole entry partner): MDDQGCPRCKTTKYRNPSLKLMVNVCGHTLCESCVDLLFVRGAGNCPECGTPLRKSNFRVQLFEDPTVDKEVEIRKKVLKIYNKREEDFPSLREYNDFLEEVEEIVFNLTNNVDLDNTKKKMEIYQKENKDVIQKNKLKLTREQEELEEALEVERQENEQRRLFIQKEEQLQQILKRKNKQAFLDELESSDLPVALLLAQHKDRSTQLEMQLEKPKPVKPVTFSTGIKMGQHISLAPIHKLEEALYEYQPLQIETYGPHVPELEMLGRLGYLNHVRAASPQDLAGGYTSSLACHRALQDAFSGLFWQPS
T2 sequence (P08581 25-1390): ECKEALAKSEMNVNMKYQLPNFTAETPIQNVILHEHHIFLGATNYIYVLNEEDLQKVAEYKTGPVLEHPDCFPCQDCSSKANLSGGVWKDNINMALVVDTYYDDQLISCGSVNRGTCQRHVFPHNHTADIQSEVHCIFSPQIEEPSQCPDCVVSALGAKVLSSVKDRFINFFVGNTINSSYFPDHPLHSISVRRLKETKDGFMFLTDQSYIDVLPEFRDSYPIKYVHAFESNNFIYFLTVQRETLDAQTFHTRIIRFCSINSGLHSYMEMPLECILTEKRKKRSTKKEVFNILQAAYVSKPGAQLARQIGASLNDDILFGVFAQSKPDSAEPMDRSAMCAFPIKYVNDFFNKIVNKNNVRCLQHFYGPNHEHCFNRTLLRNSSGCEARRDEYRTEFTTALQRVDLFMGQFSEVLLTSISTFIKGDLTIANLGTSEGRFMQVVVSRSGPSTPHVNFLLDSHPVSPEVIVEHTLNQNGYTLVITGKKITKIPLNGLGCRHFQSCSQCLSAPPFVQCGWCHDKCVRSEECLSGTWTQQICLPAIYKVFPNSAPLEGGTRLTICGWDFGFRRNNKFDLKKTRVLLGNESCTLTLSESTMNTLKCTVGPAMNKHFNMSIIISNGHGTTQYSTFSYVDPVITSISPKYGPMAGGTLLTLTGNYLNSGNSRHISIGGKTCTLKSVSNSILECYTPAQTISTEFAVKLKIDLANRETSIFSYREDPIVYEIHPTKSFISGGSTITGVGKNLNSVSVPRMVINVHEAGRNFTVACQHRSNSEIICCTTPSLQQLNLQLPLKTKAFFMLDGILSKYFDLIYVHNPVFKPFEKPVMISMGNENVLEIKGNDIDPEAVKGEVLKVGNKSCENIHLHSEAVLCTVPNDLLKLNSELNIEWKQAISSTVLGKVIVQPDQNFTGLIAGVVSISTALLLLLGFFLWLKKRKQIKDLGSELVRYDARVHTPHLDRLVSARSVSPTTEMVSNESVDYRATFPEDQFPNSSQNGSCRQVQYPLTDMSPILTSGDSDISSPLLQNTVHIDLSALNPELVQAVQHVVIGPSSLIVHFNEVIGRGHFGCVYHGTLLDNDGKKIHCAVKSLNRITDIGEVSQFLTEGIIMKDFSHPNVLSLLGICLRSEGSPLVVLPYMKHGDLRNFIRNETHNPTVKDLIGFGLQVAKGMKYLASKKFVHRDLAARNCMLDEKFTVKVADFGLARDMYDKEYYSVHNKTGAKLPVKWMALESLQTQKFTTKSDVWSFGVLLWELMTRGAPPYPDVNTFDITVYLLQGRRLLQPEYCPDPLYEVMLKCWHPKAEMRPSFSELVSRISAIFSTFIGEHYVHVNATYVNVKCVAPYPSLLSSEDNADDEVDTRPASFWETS

Row | Compound | Percentage inhibition of kinase enzyme activity (AXL) | Percentage inhibition of kinase enzyme activity (MET) | Percentage inhibition of kinase enzyme activity (AurA/TPX2) | Percentage inhibition of kinase enzyme activity (CDK7/CycH/MAT1) | Percentage inhibition of kinase enzyme activity (PGK) | Percentage inhibition of kinase enzyme activity (PHKG2) | Percentage inhibition of kinase enzyme activity (QIK) | Percentage inhibition of kinase enzyme activity (FGFR4) | IC50 (FGFR4)
1 | CC#CC(=O)N1CCC[C@H]1c1nc(-c2ccc(C(=O)Nc3ccccn3)cc2)c2c(N)nccn12 [acalabrutinib] | -0.46% | 3.91% | -4.71% | 5.25% | -3.70% | 0.00605% | -0.22% | -8.97% | 
2 | C=CC(=O)N1CCC[C@@H](n2nc(-c3ccc(Oc4ccccc4)cc3)c3c(N)ncnc32)C1 [ibrutinib] | 8.97% | 11.55% | -2.33% | 4.94% | 1.89% | 0.82% | 4.70% | 36.91% | 
3 | O=C(c1ccc(Oc2ccccc2)cc1Cl)c1c[nH]c2ncnc(N[C@@H]3CC[C@@H](CO)OC3)c12 [nemtabrutinib] | 84.52% | 42.98% | 4.98% | -12.60% | -2.11% | 5.39% | 81.76% | 1.97% | 1400 nM
4 | COc1ccc(F)cc1C(=O)NCc1ccc(-c2nn([C@@H](C)C(F)(F)F)c(N)c2C(N)=O)cc1 [pirtobrutinib] | -1.48% | 1.44% | 1.13% | -4.77% | 0.94% | 7.27% | 8.30% | 1.27% | 
5 | C=CC(=O)N1CCC([C@@H]2CCNc3c(C(N)=O)c(-c4ccc(Oc5ccccc5)cc4)nn32)CC1 [zanubrutinib] |  | 1.41% |  |  |  |  |  | 0.81% | 
